We go through 18 compounds from article PMC8725537, “Assessment of NSAIDs as potential inhibitors of the fatty acid amide hydrolase I (FAAH-1) using three different primary fatty acid amide substrates in vitro” (BMC Pharmacology & Toxicology, 2022).

The target of experiment [1] is T1, FAAH-1 (Rattus norvegicus, UniProt P97612).
T1 construct: Liver obtained from male Wister rats; from tissue; host or cells: rat liver homogenate, 20,000 g membrane pellet (male Wistar rats, Charles River Laboratories)
T1 sequence (P97612 1-579): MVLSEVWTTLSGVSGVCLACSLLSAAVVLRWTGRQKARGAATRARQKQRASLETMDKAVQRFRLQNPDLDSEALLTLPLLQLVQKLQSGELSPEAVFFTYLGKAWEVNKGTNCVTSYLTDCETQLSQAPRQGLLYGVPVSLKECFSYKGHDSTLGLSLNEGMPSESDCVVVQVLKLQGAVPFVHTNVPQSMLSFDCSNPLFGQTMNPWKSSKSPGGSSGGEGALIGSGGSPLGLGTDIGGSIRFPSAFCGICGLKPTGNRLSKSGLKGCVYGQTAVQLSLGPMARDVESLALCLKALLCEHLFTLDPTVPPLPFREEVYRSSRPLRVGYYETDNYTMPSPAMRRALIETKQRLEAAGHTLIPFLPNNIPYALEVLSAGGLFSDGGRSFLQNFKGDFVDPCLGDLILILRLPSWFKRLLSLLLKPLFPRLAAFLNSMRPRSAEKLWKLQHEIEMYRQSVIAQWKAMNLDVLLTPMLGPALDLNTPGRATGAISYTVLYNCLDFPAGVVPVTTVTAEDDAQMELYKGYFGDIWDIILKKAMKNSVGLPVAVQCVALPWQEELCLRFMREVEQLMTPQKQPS
Nature of the experiment: Inhibition of rat liver FAAH-1 oleamide hydrolase activity by NSAIDs (500 μM screen and concentration-inhibition curves). The format is biochemical. As to conditions: for FAAH-1 oleamide hydrolase activity, % of control: 500 μM NSAID, oleamide substrate, rat liver. The method, then:
(§1) FAAH-1 activity was studied in rat liver homogenate.
(§2) Liver obtained from male Wister rats (150–250 g, Charles River Laboratories, Wilmington, USA) which had been stored at − 40 °C was thawed. A volume of 6 ml/g wet weight of rat liver was homogenized in 0.2 M potassium phosphate buffer, pH 7.4 using a hand held homogenizer (Ultra-turrax) (Merck KGaA, Darmstadt, Germany). The resulting mixture was centrifuged at 250 g for 10 min after which the pellet obtained was re-homogenised and centrifuged as aforementioned. The supernatants were combined and centrifuged at 20,000 g for 30 min, after which the membrane containing pellet was re-suspended in 1:1^w/v 0.2 M potassium phosphate buffer, pH 7.4, and stored in 1 ml aliquots at − 40 °C.
FAAH-1 activity was assayed essentially as described previously. Briefly, rat liver homogenate was pre-incubated at 37 °C with shaking (50 × 10 rpm) for 10 min in 0.2 M phosphate buffer, pH 7.4 in 96-well microtitre plates (Thermo Scientific Inc., Waltham, USA) prior to substrate addition and incubation at 37 °C for 30 min. […] Substrate blank and a control containing 0.2 M phosphate buffer, pH 7.4, were incorporated into the experiments.
(§3) Effect of 500 μM concentration of NSAIDs (SIGMA-ALDRICH, Poole, UK) on each enzyme activity was analysed by removing the baseline line. Each specific activity was then plotted as percentage of control. Specific activity obtained at each inhibitor concentration for the concentration-inhibition curves were normalized and analysed using the inbuilt log (inhibitor) versus response variable slope (robust fit) and were constrained at the bottom (= 0.0%). Each specific activity was then plotted as percentage of the control. To determine the mode of inhibition, Vmax values were initially extrapolated from the (NH4)2SO4 standard curve plotted using the inbuilt second order polynomial (quadratic) Michaelis-Menten enzyme kinetics. These values were then adjusted using the protein concentrations of the preparations obtained from the Lowry protocol (Fig. SS1 and SS2).

Experiment [2] deals with T1, FAAH-1. Nature of the experiment: Rat liver FAAH-1 hydrolysis of primary fatty acid amide substrates (Michaelis-Menten, OPA fluorescence ammonia assay). The following applies: for Km / Vmax: rat liver FAAH-1, compound as substrate, pH 7.4, mean ± SEM n = 4. The format is biochemical. The method, then:
as §1, §2
(§4) FAAH-1 activity was assayed essentially as described previously. Briefly, rat liver homogenate was pre-incubated at 37 °C with shaking (50 × 10 rpm) for 10 min in 0.2 M phosphate buffer, pH 7.4 in 96-well microtitre plates (Thermo Scientific Inc., Waltham, USA) prior to substrate addition and incubation at 37 °C for 30 min. The 100 μl total assay reaction mixtures were halted with an equivalent volume of o-phthaldehyde (OPA) developing solution (0.4 M potassium phosphate buffer, pH 11.5) and incubated further at 37 °C for 15 min before assessing fluorescence using a FLUOstar Galaxy (Excitation 390 nm, Emission 450–10 nm) (BMG LABTECH GmbH, Ortenberg, Germany). Substrate blank and a control containing 0.2 M phosphate buffer, pH 7.4, were incorporated into the experiments.
as §3, with “Data obtained were entered into a Microsoft Excel 2010 spread sheet and analysed with GraphPad Prism computer software programme (GraphPad Software Inc., San Diego, CA USA). Effect” for “Effect”
Fig. 1 Hydrolysis of oleamide (a), arachidonamide (b) and stearoylamide (c) by rat liver FAAH-1 activity. Rat liver FAAH-hydrolytic activity of each primary amide substrate in vitro, was assayed by quantification of ammonia released after hydrolysis. Ammonia generated in the presence of sulphite ions is reacted with alkaline o-phthaldehyde (OPA) to generate the stable fluorescent isoindole derivative (1-sulphonatoisoindole) which is quantified by fluorescent spectroscopy. Four separate experiments with three replicates on the same microtiter plate were conducted for each substrate using different rat liver preparations. Data are mean ± SEM (Standard Error of the Mean) of four separate preparations (n = 4) conducted in triplicate

In experiment [3] the target is T1, FAAH-1. Nature of the experiment: Mode of inhibition of rat liver FAAH-1 hydrolysis of oleamide and arachidonamide (Michaelis-Menten with inhibitor). The following applies: for Vmax (nmol/min/mg protein): Control (no inhibitor), compound as substrate; for Mode of inhibition of FAAH activity: Michaelis-Menten analysis, oleamide and arachidonamide substrates. The format is biochemical. The method, then:
as §4
as §3, with “Data obtained were entered into a Microsoft Excel 2010 spread sheet and analysed with GraphPad Prism computer software programme (GraphPad Software Inc., San Diego, CA USA). Effect” for “Effect”
Unlike aspirin which is an irreversible inhibitor of COX enzymes, most other NSAIDs are reversible competitive inhibitors of the COX enzymes.
Data are mean ± SEM (Standard Error of the Mean) of four separate preparations (n = 4) conducted in triplicate

The test system of the next experiment is rat brain FAAH-1. More on the design: method as in PMID 23240907. The following applies: rat brain FAAH-1, pH 7.4 ref 52; cited from earlier work.
Experiment [4] relates to FAAH-1 in rat liver preparations. As to conditions: cited from earlier work.
The test system of a further experiment is FAAH-1 in rat brain. More on the design: method as in ref 41 = [41]; 41. Garle MJ, Clark JS and Alexander SPH. A fluorescence-derivatisation assay for fatty acid amide hydrolase activity. 2005; pA2 Online. E-journal of the British Pharmacological Society. As to conditions: oleamide hydrolysis, rat brain ref 41; cited from earlier work.
A further experiment deals with rat recombinant FAAH. More on the design: method as in PMID 10571985. The following applies: pH 9, oleamide hydrolysis ref 45; read-out: affinity (Km); cited from earlier work.
The next experiment has as its system FAAH. Further details: method as in ref 68 = [68]; 68. Dongdem JT Dawson SP Alexander SPH Characterization of [3-(3-carbamoylphenyl) phenyl] N-cyclohexyl carbamate, an inhibitor of FAAH: effect on rat liver FAAH and HEK293T-FAAH-2 deamination of oleam. The following applies: cited from earlier work.
Setting [5] is: rat liver oleamide hydrolase activity, NSAID 4.0 × 10^-6 to 1.024 × 10^-3 M in absolute ethanol, n = 4.

Molecules are shown by their SMILES. Where two headings read alike, the source gives them in different places.

`CC(=O)Nc1ccc(O)cc1` [Acetaminophen]: the “FAAH-1 oleamide hydrolase activity, % of control” value at FAAH-1 [1] is reported as “appeared to enhance enzyme activity”.
By Km is commonly meant the substrate concentration at which the rate is half of its maximum. For the compound `CCCCC/C=C\C/C=C\C/C=C\C/C=C\CCCC(N)=O` [Arachidonamide], on FAAH-1 [2] (rat liver FAAH-1), the “FAAH-1 capacity (Vmax) higher compared with oleamide” value came to 12% and the “FAAH-1 capacity (Vmax) higher than that for stearoylamide” value is on record as 75%. Moreover, at FAAH-1 [2], the Km came out at 44.9 ± 7 µM and the Vmax was determined as 10.1 ± 3.0 nmol/min/mg protein. Moreover, the “Vmax (nmol/min/mg protein)” value on FAAH-1 [3] came out at 8.4 ± 1.2 nmol/min/mg protein.
The pIC50 is the negative decadic logarithm of the IC50, by convention in mol/L. With `CC(C(=O)O)c1ccc2c(c1)[nH]c1ccc(Cl)cc12` (stereo not drawn) [Carprofen], the “FAAH-1 oleamide hydrolase activity, % of control” value on FAAH-1 [1] is given as “below 50 % of control”. Further, the pIC50 in the experiment on rat brain FAAH-1 is on record as 4.10.
As a reminder, the IC50 is the concentration at which inhibition is half-maximal. For `O=C(O)Cc1ccccc1Nc1c(Cl)cccc1Cl` [Diclofenac], at FAAH-1 [1], the “FAAH-1 oleamide hydrolase activity, % of control” value was “below 50 % of control”. For the same compound, the IC50 against FAAH-1 [1] (setting [5]) was 1260 µM.
For `O=C(O)c1cc(-c2ccc(F)cc2F)ccc1O` [Diflunisal], in that order: “below 50 % of control” and 708 µM.
Take `Cc1c(N(C)CS(=O)(=O)[O-])c(=O)n(-c2ccccc2)n1C.[Na+]` [Dipyrone]: the “pIC50 (M)” value against FAAH-1 [1] (setting [5]) is listed as 2.77 ± 0.07 M.
With `CC(C)Cc1ccc(C(C)C(=O)O)cc1` (stereo not drawn) [Ibuprofen], in the experiment on rat brain FAAH-1, the pIC50 was 3.1.
`COc1ccc2c(c1)c(CC(=O)O)c(C)n2C(=O)c1ccc(Cl)cc1` [Indomethacin]: on FAAH-1 [3], the “Mode of inhibition of FAAH activity” value was “non-competitive type inhibition”. The “Vmax (nmol/min/mg protein) in presence of inhibitor” value at FAAH-1 [3] (substrate arachidonamide, + 200 μM inhibitor) is 7.2 ± 0.9 nmol/min/mg protein; on FAAH-1 [3] (substrate oleamide, + 200 μM inhibitor), 3.8 ± 0.4 nmol/min/mg protein. In addition, in the experiment with rat brain FAAH-1, the pIC50 is given as 4.18.
With `O=C(c1ccccc1)c1ccc2n1CCC2C(=O)O` (stereo not drawn) [Ketorolac], the “FAAH-1 oleamide hydrolase activity, % of control” value on FAAH-1 [1] is on record as “below 50 % of control”. For the same compound, the IC50 at FAAH-1 [1] (setting [5]) is 1230 µM.
For the compound `Cc1ccc(Cl)c(Nc2ccccc2C(=O)O)c1Cl` [Meclofenamic acid], on FAAH-1 [1], the “FAAH-1 oleamide hydrolase activity, % of control” value is reported as “complete inhibition”. Also, it took 269 µM to reach half-maximal inhibition against FAAH-1 [1] (setting [5]) (IC50). For the same compound, the “Mode of inhibition of FAAH activity” value on FAAH-1 [3] is reported as “non-competitive type inhibition”. Also, the “Vmax (nmol/min/mg protein) in presence of inhibitor” value on FAAH-1 [3] (substrate arachidonamide, + 100 μM inhibitor) was 6.7 ± 1.0 nmol/min/mg protein; on FAAH-1 [3] (substrate oleamide, + 100 μM inhibitor) it was 2.9 ± 0.1 nmol/min/mg protein.
As for `CCCCCCCC/C=C\CCCCCCCC(N)=O` [Oleamide], the Vmax on FAAH-1 [2] is on record as 8.9 ± 1.1 nmol/min/mg protein; in experiment [4] (oleamide hydrolysis, rat liver preparations ref 41), 15 nmol.min^− 1.mg protein^− 1; in experiment [4] (rat liver FAAH-catalysed oleamide hydrolysis ref 44), 5.7 nmol.min^− 1.mg protein^− 1. Besides, the Km was 177 ± 15.5 µM on FAAH-1 [2] (read-out: Km); 129 µM in experiment [4] (oleamide hydrolysis, rat liver preparations ref 41, read-out: Km); 104 µM in experiment [4] (rat liver FAAH-catalysed oleamide hydrolysis ref 44, read-out: affinity (Km)); 179 µM with FAAH-1 in rat brain; 37 ± 7 µM in the experiment with rat recombinant FAAH. In addition, on FAAH-1 [3], the “Vmax (nmol/min/mg protein)” value was found to be 4.6 ± 0.5 nmol/min/mg protein.
On to `CCCCCCCCCCCCCCCCCC(N)=O` [Stearoylamide], for which the Vmax at FAAH-1 [2] was found to be 2.5 ± 0.6 nmol/min/mg protein. For the same compound, the Km on FAAH-1 [2] (read-out: Km) stood at 4.6 ± 0.8 µM.
For the compound `CC1=C(CC(=O)O)c2cc(F)ccc2/C1=C\c1ccc(S(C)(=O)=O)cc1` [Sulindac sulphone], the IC50 at FAAH-1 [1] (setting [5]) was 447 µM.
`CC1=C(CC(=O)O)c2cc(F)ccc2/C1=C\c1ccc([S+](C)[O-])cc1` (stereo not drawn) [Sulindac]: the “FAAH-1 oleamide hydrolase activity, % of control” value at FAAH-1 [1] is recorded as “below 50 % of control”. At FAAH-1 [1] (setting [5]), this compound gave an IC50 of 224 µM.
In the case of `NC(=O)c1cccc(-c2cccc(OC(=O)NC3CCCCC3)c2)c1` [URB597], the “Mode of FAAH inhibition” value in the experiment with FAAH is recorded as “uncompetitive”.
In the case of `Cc1onc(-c2ccccc2)c1-c1ccc(S(N)(=O)=O)cc1` [Valdecoxib], on FAAH-1 [1] (setting [5]), inhibition was half-maximal at 1000 µM (IC50).
With `CC(=O)Oc1ccccc1C(=O)O` [acetyl salicylic acid], the “FAAH-1 oleamide hydrolase activity, % of control” value at FAAH-1 [1] is “appeared to enhance enzyme activity”.
With `CCO` [ethanol], the “FAAH-1 activity (%) (basal oleamide hydrolysis, % of control)” value turned out to be 95 ± 1% on FAAH-1 [1] (15% assay ethanol), 78 ± 1% at FAAH-1 [1] (20% assay ethanol) and 76 ± 4% on FAAH-1 [1] (25% assay ethanol).
